# Experimental data: patent publication US20150191469A1, “COMPOUNDS AND METHODS FOR TREATING HIV” (priority 2012, published 2015)
# Test system: HIV
# Test: MT4 assay: antiviral HIV activity (cell protection, cell titer glo readout at 96 hours)
# Format: cell-based
# Conditions: Human immunodeficiency virus 1, MT4, 96 h, MT4 cells, cell titer glo readout at 96 hours, 10 point dose response; read-out: HIV MT4 Assay IC50
# Method in brief: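 MT-4 cells infected with HIV, with inhibition readout by CellTiter-Glo luminescence at 96 h relative to no-compound control. Cytotoxicity measured in parallel under the same conditions. IC50 from a 10-point, 3-4-fold dilution series spanning >1000-fold, fitted with a four-parameter logistic equation.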
row,IC50,SMILES
1,0.0176 µM,"Cc1nc2c(cc(-c3nccc(N4CCN(C5CCOCC5)CC4)n3)n2C)c(-c2cc(F)c3c(c2C)CCCO3)c1[C@H](OC(C)(C)C)C(=O)O (atropisomer, axis not shown; (M)) [Example 358]"
2,0.0016 µM,Cc1nc2c(cc(-c3nnc(N4C[C@@H](C)O[C@@H](C)C4)o3)n2C)c(-c2cc(F)c3c(c2C)CCCO3)c1[C@H](OC(C)(C)C)C(=O)O (racemic) [Example 338]
3,0.0109 µM,Cc1nc2c(cc(-c3cc(N4C[C@@H](C)O[C@@H](C)C4)ncn3)n2C)c(-c2cc(F)c3c(c2C)CCCO3)c1[C@H](OC(C)(C)C)C(=O)O (racemic) [Example 364]
4,0.0131 µM,Cc1nc2c(cc(-c3nc(N4C[C@@H](C)N[C@@H](C)C4)ns3)n2C)c(-c2cc(F)c3c(c2C)CCCO3)c1[C@H](OC(C)(C)C)C(=O)O (racemic) [Example 397]
5,0.0134 µM,Cc1nc2c(cc(-c3csc(N4C[C@@H](C)O[C@@H](C)C4)n3)n2C)c(-c2cc(F)c3c(c2C)CCCO3)c1[C@H](OC(C)(C)C)C(=O)O (racemic) [Example 409]
6,0.113 µM,Cc1nc2c(cc(-c3ccnc(CNc4ccccn4)c3)n2C)c(-c2cc(F)c3c(c2C)CCCO3)c1[C@H](OC(C)(C)C)C(=O)O [Example 76]
7,0.041 µM,Cc1nc2c(cc(-c3ccnc(CN(C)c4ccccn4)c3)n2C)c(-c2cc(F)c3c(c2C)CCCO3)c1[C@H](OC(C)(C)C)C(=O)O [Example 77]
8,0.0058 µM,Cc1nc2c(cc(-c3ccnc(-c4ccc5c(c4)OCCO5)c3)n2C)c(-c2cc(F)c3c(c2C)CCCO3)c1[C@H](OC(C)(C)C)C(=O)O [Example 78]
9,0.0546 µM,Cc1nc2c(cc(-c3ccnc(N4CCCN(C(=O)C5CCOC5)CC4)c3)n2C)c(-c2cc(F)c3c(c2C)CCCO3)c1[C@H](OC(C)(C)C)C(=O)O (stereo partly shown) [Example 105]
10,0.0445 µM,Cc1nc2c(cc(-c3ccnc(N4CCC(Oc5ccccc5)C4)c3)n2C)c(-c2cc(F)c3c(c2C)CCCO3)c1[C@H](OC(C)(C)C)C(=O)O (stereo partly shown) [Example 107]
11,0.04 µM,Cc1nc2c(cc(-c3ccnc(N4CCN5CCCC5C4)c3)n2C)c(-c2cc(F)c3c(c2C)CCCO3)c1[C@H](OC(C)(C)C)C(=O)O (stereo partly shown) [Example 116]
12,0.015 µM,Cc1nc2c(cc(-c3ccnc(N4CC5CN(C6COC6)CC5C4)c3)n2C)c(-c2cc(F)c3c(c2C)CCCO3)c1[C@H](OC(C)(C)C)C(=O)O (stereo partly shown) [Example 121]
13,0.164 µM,Cc1nc2c(cc(-c3ccnc(N4CCN5CCC4C5)c3)n2C)c(-c2cc(F)c3c(c2C)CCCO3)c1[C@H](OC(C)(C)C)C(=O)O (stereo partly shown) [Example 123]
14,0.0325 µM,Cc1nc2c(cc(-c3ccnc(N4CCCN5CCCC5C4)c3)n2C)c(-c2cc(F)c3c(c2C)CCCO3)c1[C@H](OC(C)(C)C)C(=O)O (stereo partly shown) [Example 124]
15,0.0225 µM,Cc1nc2c(cc(-c3ccnc(N4CCCN(C5CCOC5)CC4)c3)n2C)c(-c2cc(F)c3c(c2C)CCCO3)c1[C@H](OC(C)(C)C)C(=O)O (stereo partly shown) [Example 126]
16,0.0015 µM,Cc1nc2c(cc(-c3cncc(-c4ccc5c(cnn5C)c4)c3)n2C)c(-c2cc(F)c3c(c2C)CCCO3)c1[C@H](OC(C)(C)C)C(=O)O [Example 138]
17,0.002 µM,Cc1nc2c(cc(-c3cc(-c4ccc5c(cnn5C)c4)ccn3)n2C)c(-c2cc(F)c3c(c2C)CCCO3)c1[C@H](OC(C)(C)C)C(=O)O [Example 139]
18,0.0141 µM,Cc1nc2c(cc(-c3cc(-c4ccc5c(cnn5C)c4)[nH]n3)n2C)c(-c2cc(F)c3c(c2C)CCCO3)c1[C@H](OC(C)(C)C)C(=O)O [Example 140]
19,0.149 µM,Cc1nc2c(cc(-c3nc(-c4ccc5c(cnn5C)c4)nn3C)n2C)c(-c2cc(F)c3c(c2C)CCCO3)c1[C@H](OC(C)(C)C)C(=O)O [Example 141]
20,0.0018 µM,Cc1nc2c(cc(-c3cc(-c4ccc5c(cnn5C)c4)ncn3)n2C)c(-c2cc(F)c3c(c2C)CCCO3)c1[C@H](OC(C)(C)C)C(=O)O [Example 142]
21,0.0125 µM,Cc1nc2c(cc(-c3cnc(-c4ccc5c(cnn5C)c4)s3)n2C)c(-c2cc(F)c3c(c2C)CCCO3)c1[C@H](OC(C)(C)C)C(=O)O [Example 143]
22,3.65 µM,Cc1nc2c(cc(C(=O)N3CCCN(C4COC4)CC3)n2C)c(-c2cc(F)c3c(c2C)CCCO3)c1[C@H](OC(C)(C)C)C(=O)O [Example 162]
23,0.043 µM,Cc1nc2c(cc(C(=O)Nc3ccc4c(cnn4C)c3)n2C)c(-c2cc(F)c3c(c2C)CCCO3)c1[C@H](OC(C)(C)C)C(=O)O [Example 163]
24,0.0422 µM,Cc1nc2c(cc(C(=O)N3CCC(Oc4ccc(C#N)cc4)CC3)n2C)c(-c2cc(F)c3c(c2C)CCCO3)c1[C@H](OC(C)(C)C)C(=O)O [Example 164]
25,50 µM,Cc1nc2c(cc(C(=O)N3CCC(NC(=O)c4cncn4C)CC3)n2C)c(-c2cc(F)c3c(c2C)CCCO3)c1[C@H](OC(C)(C)C)C(=O)O [Example 165]

# The next lines start with the compound.
row,SMILES,IC50
1,"Cc1nc2c(cc(-c3nc(N4C[C@@H](C)O[C@@H](C)C4)no3)n2C)c(-c2cc(F)c3c(c2C)CCCO3)c1[C@H](OC(C)(C)C)C(=O)O (atropisomer, axis not shown; (M)) [Example 410, (2S)(M)-2-(tert-butoxy)-2-(-2-(3-((2S,6R)-2,6-dimethylmorpholino)-1,2,4-oxadiazol-5-yl)-4-(8-fluoro-5-methylchroman-6-yl)-1,6-dimethyl-1H-pyrrolo[2,3-b]pyridin-5-yl)acetic acid]",0.0031 µM
2,"Cc1nc2c(cc(-c3noc(N4CCC(C)CC4)n3)n2C)c(-c2cc(F)c3c(c2C)CCCO3)c1[C@H](OC(C)(C)C)C(=O)O (atropisomer, axis not shown; (M)) [Example 411, (2S)(M)-2-(tert-butoxy)-2-(-4-(8-fluoro-5-methylchroman-6-yl)-1,6-dimethyl-2-(5-(4-methylpiperidin-1-yl)-1,2,4-oxadiazol-3-yl)-1H-pyrrolo[2,3-b]pyridin-5-yl)acetic acid]",0.0076 µM
3,"Cc1nc2c(cc(CNC(=O)c3ccc4c(cnn4C)c3)n2C)c(-c2cc(F)c3c(c2C)CCCO3)c1[C@H](OC(C)(C)C)C(=O)O (atropisomer, axis not shown; (M)) [Example 412, (2S)(M)-2-(tert-butoxy)-2-(-4-(8-fluoro-5-methylchroman-6-yl)-1,6-dimethyl-2-((1-methyl-1H-indazole-5-carboxamido)methyl)-1H-pyrrolo[2,3-b]pyridin-5-yl)acetic acid]",0.0431 µM
4,"COCCNC(=O)/C=C/c1cc2c(-c3cc(F)c4c(c3C)CCCO4)c([C@H](OC(C)(C)C)C(=O)O)c(C)nc2n1C (atropisomer, axis not shown; (M)) [Example 413, (2S)(M)-2-(tert-butoxy)-2-(-4-(8-fluoro-5-methylchroman-6-yl)-2-((E)-3-((2-methoxyethyl)amino)-3-oxoprop-1-en-1-yl)-1,6-dimethyl-1H-pyrrolo[2,3-b]pyridin-5-yl)acetic acid]",0.148 µM
5,"Cc1nc2c(cc(C(=O)C(=O)NCc3ccccc3)n2C)c(-c2cc(F)c3c(c2C)CCCO3)c1[C@H](OC(C)(C)C)C(=O)O (atropisomer, axis not shown; (M)) [Example 420, (2S)(M)-2-(-2-(2-(benzylamino)-2-oxoacetyl)-4-(8-fluoro-5-methylchroman-6-yl)-1,6-dimethyl-1H-pyrrolo[2,3-b]pyridin-5-yl)-2-(tert-butoxy)acetic acid]",0.0946 µM
6,"Cc1nc2c(cc(-c3ccnc(N4CC(N5CCOCC5)C4)c3)n2C)c(-c2cc(F)c3c(c2C)CCCO3)c1[C@H](OC(C)(C)C)C(=O)O [Example 2, (2S)-2-(tert-butoxy)-2-[4-(8-fluoro-5-methyl-3,4-dihydro-2H-1-benzopyran-6-yl)-1,6-dimethyl-2-{2-[3-(morpholin-4-yl)azetidin-1-yl]pyridin-4-yl}-1H-pyrrolo[2,3-b]pyridin-5-yl]acetic acid]",0.0156 µM
7,"Cc1nc2c(cc(-c3ccnc(-c4ccc5c(cnn5C)c4)c3)n2C)c(-c2ccc(Cl)cc2)c1[C@H](OC(C)(C)C)C(=O)O [Example 15, (2S)-2-(tert-butoxy)-2-[4-(4-chlorophenyl)-1,6-dimethyl-2-[2-(1-methyl-1H-indazol-5-yl)pyridin-4-yl]-1H-pyrrolo[2,3-b]pyridin-5-yl]acetic acid]",0.0137 µM
8,CCCn1cc(-c2cc(-c3cc4c(-c5cc(F)c6c(c5C)CCCO6)c([C@H](OC(C)(C)C)C(=O)O)c(C)nc4n3C)ccn2)cn1 [Example 44],0.014 µM
9,Cc1nc2c(cc(-c3ccnc(-c4ccc5c(c4)ncn5C)c3)n2C)c(-c2cc(F)c3c(c2C)CCCO3)c1[C@H](OC(C)(C)C)C(=O)O [Example 51],0.004 µM
10,Cc1nc2c(cc(-c3ccnc(-c4ccc5nn(C)nc5c4)c3)n2C)c(-c2cc(F)c3c(c2C)CCCO3)c1[C@H](OC(C)(C)C)C(=O)O [Example 61],0.0026 µM
11,Cc1nc2c(cc(-c3ccnc(-c4ccc5nn(C6COC6)cc5c4)c3)n2C)c(-c2cc(F)c3c(c2C)CCCO3)c1[C@H](OC(C)(C)C)C(=O)O [Example 64],0.0028 µM
12,Cc1nc2c(cc(-c3ccnc(-c4ccc5c(cnn5C5COC5)c4)c3)n2C)c(-c2cc(F)c3c(c2C)CCCO3)c1[C@H](OC(C)(C)C)C(=O)O [Example 65],0.0024 µM
13,Cc1nc2c(cc(-c3cccc(-c4ccc5c(cnn5C)c4)n3)n2C)c(-c2cc(F)c3c(c2C)CCCO3)c1[C@H](OC(C)(C)C)C(=O)O [Example 71],0.0234 µM
14,Cc1cc(COc2cc(-c3cc4c(-c5cc(F)c6c(c5C)CCCO6)c([C@H](OC(C)(C)C)C(=O)O)c(C)nc4n3C)ccn2)ccn1 [Example 73],0.0038 µM
15,Cc1nc2c(cc(-c3ccnc(CNc4ncc(F)cn4)c3)n2C)c(-c2cc(F)c3c(c2C)CCCO3)c1[C@H](OC(C)(C)C)C(=O)O [Example 74],0.0565 µM
16,Cc1nc2c(cc(-c3ccnc(OC4CCN(Cc5ccccc5)CC4)c3)n2C)c(-c2cc(F)c3c(c2C)CCCO3)c1[C@H](OC(C)(C)C)C(=O)O [Example 75],0.1 µM
17,CCN(CC)C1C[C@H]2CC[C@@H](C1)N2c1cc(-c2cc3c(-c4cc(F)c5c(c4C)CCCO5)c([C@H](OC(C)(C)C)C(=O)O)c(C)nc3n2C)ccn1 (stereo partly shown) [Example 110],0.045 µM
18,Cc1nc2c(cc(-c3ccnc(NC4C[C@H]5CC[C@@H](C4)N5C)c3)n2C)c(-c2cc(F)c3c(c2C)CCCO3)c1[C@H](OC(C)(C)C)C(=O)O (stereo partly shown) [Example 112],1.33 µM
